Experiments:
OVCAR-3 = conditions: 10 μM single dose; Ovarian Cancer OVCAR-3
Source text: (§1) The test compounds were screened for anticancer activity at the Development Therapeutic Program (DTP), National Cancer Institute (NCI), USA, against a full NCI 59 cell line panel (six cell lines of leukemia, nine cell lines of lung cancer, seven cell lines of colon cancer, six cell lines of CNS cancer, nine cell lines of melanoma, seven cell lines of ovarian cancer, seven cell lines of renal cancer, two cell lines of prostate cancer, and six cell lines of breast cancer) representing nine human systems in total as leukemia, melanoma, and cancers of the lungs, colon, brain, breast, ovary, kidney, and prostate, according to the applied protocol. A primary in vitro one dose anticancer assay was performed at a single dose (10 μM) against the full NCI 59 cell line panel. The one dose data was reported as a mean graph of the percent growth of treated cells. The number reported for the single dose assay was growth relative to the no drug control and relative to the initial number of cells at time 0. […] A value of −40 means 40% lethality. A value of −100 means all cells are dead.

OVCAR-8 = conditions: 10 μM single dose; Ovarian Cancer OVCAR-8
Source text: as §1

MDA-MB-468 = conditions: 10 μM single dose; Breast Cancer MDA-MB-468
Source text: as §1

SR = conditions: 10 μM single dose; Leukemia SR
Source text: as §1

SK-MEL-5 = conditions: 10 μM single dose; Melanoma SK-MEL-5
Source text: as §1

SN12C = conditions: 10 μM single dose; Renal Cancer SN12C
Source text: as §1

IGROV1 = conditions: 10 μM single dose; Ovarian Cancer IGROV1
Source text: as §1

HOP-62 = conditions: 10 μM single dose; Non-Small Cell Lung Cancer HOP-62
Source text: as §1

A549/ATCC = conditions: 10 μM single dose; Non-Small Cell Lung Cancer A549/ATCC
Source text: as §1

HS 578T = conditions: 10 μM single dose; Breast Cancer HS 578T
Source text: as §1

MALME-3M = conditions: 10 μM single dose; Melanoma MALME-3M
Source text: as §1

HCC-2998 = conditions: 10 μM single dose; Colon Cancer HCC-2998
Source text: as §1

HCT-15 = conditions: 10 μM single dose; Colon Cancer HCT-15
Source text: as §1

A498 = conditions: 10 μM single dose; Renal Cancer A498
Source text: as §1

NCI-H322M = conditions: 10 μM single dose; Non-Small Cell Lung Cancer NCI-H322M
Source text: as §1

HT29 = conditions: 10 μM single dose; Colon Cancer HT29
Source text: as §1

RPMI-8226 = conditions: 10 μM single dose; Leukemia RPMI-8226
Source text: as §1

SK-MEL-28 = conditions: 10 μM single dose; Melanoma SK-MEL-28
Source text: as §1

NCI/ADR-RES = conditions: 10 μM single dose; Ovarian Cancer NCI/ADR-RES
Source text: as §1

SF-539 = conditions: 10 μM single dose; CNS Cancer SF-539
Source text: as §1

MCF7 = conditions: 10 μM single dose; Breast Cancer MCF7
Source text: as §1

MDA-MB-231/ATCC = conditions: 10 μM single dose; Breast Cancer MDA-MB-231/ATCC
Source text: as §1

SMILES | Growth Percentage (OVCAR-3) | Growth Percentage (OVCAR-8) | Growth Percentage (MDA-MB-468) | Growth Percentage (SR) | Growth Percentage (SK-MEL-5) | Growth Percentage (SN12C) | Growth Percentage (IGROV1) | Growth Percentage (A549/ATCC) | Growth Percentage (HS 578T) | Growth Percentage (MALME-3M) | Growth Percentage (HCC-2998) | Growth Percentage (A498) | Growth Percentage (NCI-H322M) | Growth Percentage (HT29) | Growth Percentage (RPMI-8226) | Growth Percentage (SK-MEL-28) | Growth Percentage (NCI/ADR-RES) | Growth Percentage (SF-539) | Growth Percentage (MCF7) | Growth Percentage (MDA-MB-231/ATCC) | further results
[2H]C1([2H])NC([2H])([2H])C([2H])(c2ccc(-n3cc4cccc(C(N)=O)c4n3)cc2)C([2H])([2H])C1([2H])[2H] (racemic) [Example 3, 2-(4-(piperidin-3-yl-2,2,3,4,4,5,5,6,6-d9)phenyl)-2H-indazole-7-carboxamide] | 103.07% | 81.93% | 109.78% | 59.44% | 93.38% | 93.25% | 83.23% | 67.74% | 86.68% | 91.23% | 88.49% | 90.94% | 98.96% | 93.28% | 87.86% | 107.36% | 97.76% | 96.82% | 75.22% | 83.62% | Growth Percentage (HOP-62): 93.86%; Growth Percentage (HCT-15): 100.98%
[2H]c1c([2H])c(-n2nc3c(C(N)=O)cccc3c2[2H])c([2H])c([2H])c1C1CCCNC1 (racemic) [Example 11, 2-(4-(piperidin-3-yl)phenyl-2,3,5,6-d4)-2H-indazole-3-d-7-carboxamide] | 97.70% | 84.66% | 87.13% | 37.42% | 91.06% | 81.90% | 74.29% | 70.16% | 81.82% | 92.14% | 80.10% | 83.22% | 85.94% | 87.71% | 78.32% | 101.33% | 89.85% | 77.48% | 69.21% | 76.99% | Growth Percentage (HOP-62): 94.55%; Growth Percentage (HCT-15): 85.76%
[2H]c1c([2H])c(C2([2H])C([2H])NC([2H])C([2H])C2[2H])c([2H])c([2H])c1-n1cc2cccc(C(N)=O)c2n1 (stereo not shown) [Example 4, 2-(4-(piperidin-3-yl-2,3,4,5,6-d5)phenyl-2,3,5,6-d4)-2H-indazole-7-carboxamide] | 107.53% | 82.86% | 86.59% | 47.47% | 91.65% | 89.59% | 73.75% | 67.08% | 86.01% | 79.53% | 83.97% | 89.03% | 84.01% | 77.66% | 90.85% | 98.37% | 84.74% | 82.30% | 64.30% | 80.47% | –

Reference: patent US11384062B2 (CombiPhos Catalysts, Inc., priority 2017, dated 2022)
